Among the test systems are 786-0 renal; ACHN renal; DU-145 prostate; HCC-2998 colon; HS 578T breast; IGROV1 ovarian; RPMI-8226 leukemia; SF-268 CNS; SK-OV-3 ovarian; SR leukemia.
Assay in all cases: NCI-60 cell line screen, 48 h

Molecules are shown by their SMILES.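 Results reflect a 48-hour exposure of cells in 96-well plates to compound at five concentrations. GI50 is the concentration that inhibits growth by half. TGI: concentration producing complete growth inhibition.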

GI50 and TGI data for 7 molecules are collected here from PubChem BioAssay (NCI).

For the molecule `COc1cc2ncnc(-n3ncc4cc(NC(=O)Nc5ccc(Cl)c(Cl)c5)ccc43)c2cc1OC`, the GI50 in the assay on 786-0 renal is 1.56 µM; with ACHN renal it was 1.45 µM; with DU-145 prostate, 3.2 µM; with HCC-2998 colon, 2.61 µM; in the assay on HS 578T breast, 2 µM; in the assay with IGROV1 ovarian, 2.05 µM. The GI50 in the assay on RPMI-8226 leukemia is 2.11 µM; in the assay on SF-268 CNS it was 2.44 µM; in the assay on SK-OV-3 ovarian, 2.04 µM; with SR leukemia, 2.75 µM. Further, the TGI amounted to 3.52 µM in the assay on 786-0 renal; 3.25 µM in the assay with ACHN renal; 11.9 µM in the assay with DU-145 prostate; 8.87 µM in the assay with HCC-2998 colon; 7.95 µM in the assay on HS 578T breast; 4.66 µM in the assay with IGROV1 ovarian. The TGI in the assay with RPMI-8226 leukemia was 7.52 µM; in the assay on SF-268 CNS, 7.32 µM; in the assay on SK-OV-3 ovarian, 4.03 µM; in the assay on SR leukemia, greater than 100 µM.

Turning to `CCn1c(-c2cc3c([nH]c4ccccc43)c(-c3cccc(O)c3)n2)n[nH]c1=S`, the GI50 with 786-0 renal is 2.29 µM; in the assay on ACHN renal it was 3.02 µM; in the assay on DU-145 prostate, 4.87 µM; in the assay on HCC-2998 colon, 4.77 µM; in the assay with HS 578T breast, 2.21 µM; with IGROV1 ovarian, 4.23 µM. Further, the GI50 in the assay with RPMI-8226 leukemia is 2.5 µM; with SF-268 CNS, 4.04 µM; in the assay on SK-OV-3 ovarian, 4.32 µM; in the assay on SR leukemia, 1.67 µM. Besides, the TGI with 786-0 renal is 6.31 µM; with ACHN renal it was 10.1 µM; in the assay with DU-145 prostate, 16.7 µM; with HCC-2998 colon, 17.5 µM; with HS 578T breast, 9.17 µM; in the assay on IGROV1 ovarian, 35.5 µM. Besides, the TGI with RPMI-8226 leukemia was 8.78 µM; with SF-268 CNS it was 17.4 µM; in the assay on SK-OV-3 ovarian, 17.5 µM; in the assay on SR leukemia, 6.97 µM.

For the molecule `NS(=O)(=O)c1ccc(N=Nc2c(O)[nH]c3ccc(C(=O)NCc4ccncc4)cc23)cc1`, the GI50 in the assay on 786-0 renal, in the assay on ACHN renal, in the assay with DU-145 prostate, with HCC-2998 colon, in the assay with HS 578T breast and in the assay on IGROV1 ovarian was greater than 25 µM each time. Moreover, the GI50 with RPMI-8226 leukemia, in the assay with SF-268 CNS, in the assay with SK-OV-3 ovarian and in the assay with SR leukemia was greater than 25 µM throughout. For the same molecule, the TGI with 786-0 renal, in the assay with ACHN renal, in the assay with DU-145 prostate, with HCC-2998 colon, in the assay with HS 578T breast and in the assay with IGROV1 ovarian was greater than 25 µM throughout. Besides, the TGI with RPMI-8226 leukemia, in the assay on SF-268 CNS, with SK-OV-3 ovarian and in the assay with SR leukemia was greater than 25 µM each time.

Consider `NC(=O)[C@@H](CC1CC1)[C@@H](CCC(F)(F)F)C(=O)N[C@H]1N=C(c2ccccc2)c2cccc(F)c2NC1=O`, for which the GI50 in the assay on 786-0 renal is 17.8 µM; with ACHN renal it was 66 µM; in the assay on DU-145 prostate, greater than 100 µM; in the assay on HCC-2998 colon it was greater than 100 µM; in the assay on HS 578T breast, greater than 100 µM; in the assay on IGROV1 ovarian, 31.7 µM. The GI50 in the assay on RPMI-8226 leukemia is 27.8 µM; in the assay with SF-268 CNS, greater than 100 µM; in the assay with SK-OV-3 ovarian, greater than 100 µM; in the assay on SR leukemia it was 12 µM. For the same molecule, the TGI with 786-0 renal was 53.9 µM; in the assay with ACHN renal, greater than 100 µM; in the assay with DU-145 prostate, greater than 100 µM; with HCC-2998 colon, greater than 100 µM; in the assay on HS 578T breast, greater than 100 µM; in the assay with IGROV1 ovarian, greater than 100 µM. Also, the TGI in the assay with RPMI-8226 leukemia, in the assay on SF-268 CNS, in the assay on SK-OV-3 ovarian and in the assay with SR leukemia was greater than 100 µM in each case.

Consider `CN(C)CCNC(=O)c1ccc(-c2nc3ccc4[nH]ncc4c3c3c2C2CCC3C2)cc1` (stereo not given), for which the GI50 with 786-0 renal is 0.882 µM; in the assay on ACHN renal, 0.564 µM; with DU-145 prostate it was 0.965 µM; in the assay with HCC-2998 colon it was 1.74 µM; in the assay on HS 578T breast, 0.494 µM; in the assay with IGROV1 ovarian it was 1.52 µM. In addition, the GI50 with RPMI-8226 leukemia is 1.35 µM; with SF-268 CNS, 0.967 µM; in the assay with SK-OV-3 ovarian it was 0.348 µM; in the assay with SR leukemia, 0.254 µM. Moreover, the TGI was 4.92 µM in the assay on 786-0 renal; 6.91 µM in the assay with ACHN renal; 6 µM in the assay on DU-145 prostate; 5.64 µM in the assay on HCC-2998 colon; 2.62 µM in the assay with HS 578T breast; 6.2 µM in the assay with IGROV1 ovarian. For the same molecule, the TGI in the assay on RPMI-8226 leukemia is 4.6 µM; with SF-268 CNS, 3.3 µM; in the assay with SK-OV-3 ovarian it was 4.28 µM; in the assay on SR leukemia it was 2.65 µM.

For `Oc1c(Cl)cc(Cl)c2ccc(Cn3cc(-c4cc(C(F)(F)F)cc(C(F)(F)F)c4)nn3)nc12`, the GI50 with 786-0 renal was 1.97 µM; with ACHN renal, 1.25 µM; in the assay with DU-145 prostate it was 1.57 µM; in the assay on HCC-2998 colon, 7.72 µM; with HS 578T breast, 2.98 µM; in the assay with IGROV1 ovarian, 1.5 µM. In addition, the GI50 in the assay with RPMI-8226 leukemia was 1.32 µM; with SF-268 CNS, 4.22 µM; with SK-OV-3 ovarian, 16.4 µM; with SR leukemia, 0.714 µM. The TGI with 786-0 renal worked out at 4.47 µM; in the assay with ACHN renal, 2.5 µM; in the assay on DU-145 prostate, 3.06 µM; with HCC-2998 colon it was 21.4 µM; in the assay with HS 578T breast, 9.3 µM; in the assay with IGROV1 ovarian it was 3.47 µM. For the same molecule, the TGI came out at 4.74 µM in the assay on RPMI-8226 leukemia, 17.5 µM in the assay with SF-268 CNS, 30.1 µM in the assay on SK-OV-3 ovarian and 5.68 µM in the assay with SR leukemia.

For `C=C/C(C)=C/C[C@]1(C)[C@H](C)[C@@H](OC(=O)CCC)[C@H](O)[C@@]23C(=C[C@H](OC)C[C@@H]12)[C@@H](OC(=O)CCC)O[C@H]3OC(C)=O`, the GI50 in the assay with 786-0 renal was 0.287 µM; with ACHN renal it was 0.234 µM; with DU-145 prostate, 1.53 µM; in the assay on HCC-2998 colon, 0.238 µM; in the assay with HS 578T breast, 1.13 µM; in the assay on IGROV1 ovarian, 1.53 µM. The GI50 in the assay on RPMI-8226 leukemia was 0.341 µM; in the assay on SF-268 CNS, 1.58 µM; in the assay on SK-OV-3 ovarian, 0.266 µM; in the assay on SR leukemia, 0.324 µM. In addition, the TGI was determined as 0.888 µM with 786-0 renal; 0.619 µM with ACHN renal; 2.9 µM in the assay with DU-145 prostate; 0.71 µM in the assay on HCC-2998 colon; 3.38 µM in the assay on HS 578T breast; 3.39 µM in the assay with IGROV1 ovarian. In addition, the TGI with RPMI-8226 leukemia came out at 1.65 µM; in the assay with SF-268 CNS, 3.25 µM; in the assay with SK-OV-3 ovarian, 0.806 µM; with SR leukemia it was 1.49 µM.
